These results are taken from PMC4460250, “Systems Pharmacology Dissecting Holistic Medicine for Treatment of Complex Diseases: An Example Using Cardiocerebrovascular Diseases Treated by TCM” (Evidence-based Complementary and Alternative Medicine : eCAM, 2015).

Like-named read-outs stand apart in the source and are kept apart here.

The nature of data set [1]: Human intestinal absorption percentage values of the PreHIA data set (732 compounds, Table S2). Conditions: class from HIA value.
The conditions of data set [2]: cited from earlier work.
For data set [3] the following is noted: in vivo.
The mark [4] stands for this setting: human, PreHIA data set, value given as fraction.

On to `Clc1ccc2c(c1)C(N1CCNCC1)=Nc1ccccc1O2` [Amoxapine], for which the “Class(High: HIA value ≥0.7; Low: HIA value < 0.7)” value in data set [1] is given as “High (High: HIA value ≥0.7)”. The “HIA(Human Intestinal Absorption)” value in data set [2] (setting [4]) is recorded as 0.95.
`CC1(C)S[C@@H]2[C@H](NC(=O)[C@H](N)c3ccc(O)cc3)C(=O)N2[C@H]1C(=O)O` [Amoxicillin]: the “Class(High: HIA value ≥0.7; Low: HIA value < 0.7)” value in data set [1] was “High (High: HIA value ≥0.7)”.
On to `NS(=O)(=O)c1cc(-c2nnn[nH]2)c(NCc2cccs2)cc1Cl` [Azosemide], for which the “Class(High: HIA value ≥0.7; Low: HIA value < 0.7)” value in data set [1] is listed as “Low (Low: HIA value < 0.7)”. The “HIA(Human Intestinal Absorption)” value in data set [2] (setting [4]) is reported as 0.1.
Consider `CC(=O)Nc1ccc(OC(=O)c2ccccc2OC(C)=O)cc1` [Benorylate], for which, in data set [1], the “Class(High: HIA value ≥0.7; Low: HIA value < 0.7)” value is “High (High: HIA value ≥0.7)”. In data set [2] (setting [4]), the “HIA(Human Intestinal Absorption)” value is given as 1.
Turning to `CN(Cc1cc(Br)cc(Br)c1N)C1CCCCC1` [Bromhexine], the “Class(High: HIA value ≥0.7; Low: HIA value < 0.7)” value in data set [1] was “High (High: HIA value ≥0.7)”. In data set [2] (setting [4]), the “HIA(Human Intestinal Absorption)” value is reported as 0.7.
As for `O=C1CC2(CCCC2)CC(=O)N1CCCCN1CCN(c2ncccn2)CC1` [Buspirone], the “Class(High: HIA value ≥0.7; Low: HIA value < 0.7)” value in data set [1] is reported as “High (High: HIA value ≥0.7)”. Also, the “HIA(Human Intestinal Absorption)” value in data set [2] (setting [4]) is 1.
Regarding `CCCC[N+]1(C)[C@@H]2C[C@@H](OC(=O)[C@H](CO)c3ccccc3)C[C@H]1[C@@H]1O[C@@H]12` (stereo partly drawn) [Butylscopolamine], the “Class(High: HIA value ≥0.7; Low: HIA value < 0.7)” value in data set [1] is “Low (Low: HIA value < 0.7)”. The “HIA(Human Intestinal Absorption)” value in data set [2] (setting [4]) is reported as 0.1.
As for `C[N+](C)(C)CC(O)CC(=O)[O-]` (stereo not drawn) [Carnitine], the “Class(High: HIA value ≥0.7; Low: HIA value < 0.7)” value in data set [1] is recorded as “Low (Low: HIA value < 0.7)”. For the same molecule, the “HIA(Human Intestinal Absorption)” value in data set [2] (setting [4]) is on record as 0.1.
As to `O=C(O)[C@H](CCc1ccccc1)N[C@H]1CCCN2CCC[C@@H](C(=O)O)N2C1=O` [Cilazaprilat], in data set [1], the “Class(High: HIA value ≥0.7; Low: HIA value < 0.7)” value is “Low (Low: HIA value < 0.7)”. For the same molecule, in data set [2] (setting [4]), the “HIA(Human Intestinal Absorption)” value is reported as 0.2.
Consider `C=C[C@H]1C[N@@]2CC[C@H]1C[C@@H]2[C@@H](O)c1ccnc2ccccc12` [Cinchonine], for which the “Class(High: HIA value ≥0.7; Low: HIA value < 0.7)” value in data set [1] is “High (High: HIA value ≥0.7)”. Moreover, in data set [2] (setting [4]), the “HIA(Human Intestinal Absorption)” value was 1.
For `O=C(O)[C@H]1/C(=C/CO)O[C@@H]2CC(=O)N21` [Clavulanic_acid], the “Class(High: HIA value ≥0.7; Low: HIA value < 0.7)” value in data set [1] was “High (High: HIA value ≥0.7)”. Further, the “HIA(Human Intestinal Absorption)” value in data set [2] (setting [4]) is 0.75.
`CN1CCC(=C2c3ccccc3C=Cc3ccccc32)CC1` [Cyproheptadine]: in data set [1], the “Class(High: HIA value ≥0.7; Low: HIA value < 0.7)” value was “High (High: HIA value ≥0.7)”. Also, in data set [2] (setting [4]), the “HIA(Human Intestinal Absorption)” value was 0.8.
With `CCN(CC)CCOC(=O)C1(C2CCCCC2)CCCCC1` [Dicyclomine], the “Class(High: HIA value ≥0.7; Low: HIA value < 0.7)” value in data set [1] is on record as “High (High: HIA value ≥0.7)”. Moreover, the “HIA(Human Intestinal Absorption)” value in data set [2] (setting [4]) is reported as 1.
Turning to `CN1C[C@H](C(=O)N[C@]2(C)O[C@@]3(O)[C@@H]4CCCN4C(=O)[C@H](Cc4ccccc4)N3C2=O)C[C@@H]2c3cccc4[nH]cc(c34)C[C@H]21` [Dihydroergotamine], the “Class(High: HIA value ≥0.7; Low: HIA value < 0.7)” value in data set [1] is reported as “Low (Low: HIA value < 0.7)”. The “HIA(Human Intestinal Absorption)” value in data set [2] (setting [4]) was 0.35.
On to `CN(C(=O)C(Cl)Cl)c1ccc(O)cc1` [Diloxanide], for which the “Class(High: HIA value ≥0.7; Low: HIA value < 0.7)” value in data set [1] is reported as “High (High: HIA value ≥0.7)”. In data set [2] (setting [4]), the “HIA(Human Intestinal Absorption)” value is reported as 0.9.
As for `C[N+]1(C)CCC(=C(c2ccccc2)c2ccccc2)CC1` [Diphemanil], the “Class(High: HIA value ≥0.7; Low: HIA value < 0.7)” value in data set [1] is “Low (Low: HIA value < 0.7)”. In addition, the “HIA(Human Intestinal Absorption)” value in data set [2] (setting [4]) is 0.07.
`CN(C)CCC=C1c2ccccc2COc2ccccc21` [Doxepin]: the “Class(High: HIA value ≥0.7; Low: HIA value < 0.7)” value in data set [1] is reported as “High (High: HIA value ≥0.7)”. The “HIA(Human Intestinal Absorption)” value in data set [2] (setting [4]) is 1.
Take `NC(=O)OCC(COC(N)=O)c1ccccc1` [Felbamate]: the “Class(High: HIA value ≥0.7; Low: HIA value < 0.7)” value in data set [1] is “High (High: HIA value ≥0.7)”. The “HIA(Human Intestinal Absorption)” value in data set [2] (setting [4]) is given as 0.9.
`CC(C)=CCC1C(=O)N(c2ccccc2)N(c2ccccc2)C1=O` [Feprazone]: the “Class(High: HIA value ≥0.7; Low: HIA value < 0.7)” value in data set [1] is on record as “High (High: HIA value ≥0.7)”. For the same molecule, the “HIA(Human Intestinal Absorption)” value in data set [2] (setting [4]) is 0.9.
As for `O=CN(O)CCCP(=O)(O)O` [Fosmidomycin], the “Class(High: HIA value ≥0.7; Low: HIA value < 0.7)” value in data set [1] is recorded as “Low (Low: HIA value < 0.7)”. For the same molecule, in data set [2] (setting [4]), the “HIA(Human Intestinal Absorption)” value is listed as 0.3.
On to `C[C@H]([C@](O)(Cn1cncn1)c1ccc(F)cc1F)S(C)(=O)=O` [Genaconazole], for which the “Class(High: HIA value ≥0.7; Low: HIA value < 0.7)” value in data set [1] is “High (High: HIA value ≥0.7)”. Moreover, the “HIA(Human Intestinal Absorption)” value in data set [2] (setting [4]) is on record as 1.
As to `COCCOc1cnc(NS(=O)(=O)c2ccccc2)nc1` [Glymidine], the “Class(High: HIA value ≥0.7; Low: HIA value < 0.7)” value in data set [1] was “High (High: HIA value ≥0.7)”. Further, the “HIA(Human Intestinal Absorption)” value in data set [2] (setting [4]) is 0.95.
On to `N=C(N)NC(=O)Cc1c(Cl)cccc1Cl` [Guanfacine], for which, in data set [1], the “Class(High: HIA value ≥0.7; Low: HIA value < 0.7)” value is reported as “High (High: HIA value ≥0.7)”. The “HIA(Human Intestinal Absorption)” value in data set [2] (setting [4]) is on record as 1.
Regarding `CCOC(=O)N1CCC(=C2c3ccc(Cl)cc3CCc3cccnc32)CC1` [Loratadine], the “Class(High: HIA value ≥0.7; Low: HIA value < 0.7)” value in data set [1] is “High (High: HIA value ≥0.7)”.
The same measure, in the same setting: the same measure for `C[C@@H]1O[C@@H](O[C@H]2C[C@@H](O)[C@]3(CO)[C@H]4[C@H](O)C[C@]5(C)[C@@H](C6=CC(=O)OC6)CC[C@]5(O)[C@@H]4CC[C@]3(O)C2)[C@H](O)[C@H](O)[C@H]1O` [Ouabain]: “Low (Low: HIA value < 0.7)”.
In the case of `COc1ccc([C@H](CN(C)C)C2(O)CCCCC2)cc1` [Venlafaxine(R)], in data set [3], the “Class(High: HIA value ≥0.7; Low: HIA value < 0.7)” value is recorded as “High (key: High: HIA value ≥0.7; Low: HIA value < 0.7)”. In addition, the “HIA(Human Intestinal Absorption)” value in data set [2] (in vivo) is 0.95.
As for `COc1ccc([C@@H](CN(C)C)C2(O)CCCCC2)cc1` [Venlafaxine(S)], the “Class(High: HIA value ≥0.7; Low: HIA value < 0.7)” value in data set [3] was “High (key: High: HIA value ≥0.7; Low: HIA value < 0.7)”. The “HIA(Human Intestinal Absorption)” value in data set [2] (in vivo) is listed as 0.95.
In the case of `COc1ccc(CCN(C)CCCN2CCc3cc(OC)c(OC)cc3CC2=O)cc1OC` [Zatebradin], the “Class(High: HIA value ≥0.7; Low: HIA value < 0.7)” value in data set [3] was “High (key: High: HIA value ≥0.7; Low: HIA value < 0.7)”. For the same molecule, in data set [2] (in vivo), the “HIA(Human Intestinal Absorption)” value is given as 0.79.
In the case of `C[C@H](c1cc2ccccc2s1)N(O)C(N)=O` [Zileuton(R)], in data set [3], the “Class(High: HIA value ≥0.7; Low: HIA value < 0.7)” value is “High (key: High: HIA value ≥0.7; Low: HIA value < 0.7)”. For the same molecule, the “HIA(Human Intestinal Absorption)” value in data set [2] (in vivo) was 1.
On to `C[C@@H](c1cc2ccccc2s1)N(O)C(N)=O` [Zileuton(S)], for which the “Class(High: HIA value ≥0.7; Low: HIA value < 0.7)” value in data set [3] is “High (key: High: HIA value ≥0.7; Low: HIA value < 0.7)”. For the same molecule, in data set [2] (in vivo), the “HIA(Human Intestinal Absorption)” value is 1.
In the case of `Cc1ccc(-c2nc3ccc(C)cn3c2CC(=O)N(C)C)cc1` [Zolpidem], in data set [3], the “Class(High: HIA value ≥0.7; Low: HIA value < 0.7)” value is listed as “High (key: High: HIA value ≥0.7; Low: HIA value < 0.7)”. Also, the “HIA(Human Intestinal Absorption)” value in data set [2] (in vivo) is reported as 0.95.
As to `CN1CCN(C(=O)O[C@@H]2c3nccnc3C(=O)N2c2ccc(Cl)cn2)CC1` [Zopiclone(R)], the “Class(High: HIA value ≥0.7; Low: HIA value < 0.7)” value in data set [3] was “High (key: High: HIA value ≥0.7; Low: HIA value < 0.7)”. Besides, in data set [2] (in vivo), the “HIA(Human Intestinal Absorption)” value is listed as 0.98.
For `CN1CCN(C(=O)O[C@H]2c3nccnc3C(=O)N2c2ccc(Cl)cn2)CC1` [Zopiclone(S)], the “Class(High: HIA value ≥0.7; Low: HIA value < 0.7)” value in data set [3] was “High (key: High: HIA value ≥0.7; Low: HIA value < 0.7)”. The “HIA(Human Intestinal Absorption)” value in data set [2] (in vivo) is listed as 0.98.
